According to patent US11267812B2 (Mirati Therapeutics, Inc., priority 2016, dated 2022):

Each molecule was assayed on Phospho-ERK in NCI-H358 cells expressing KRas G12C (assay: Cellular inhibition of KRas G12C by Phospho-ERK measurement in NCI-H358 cells). Settings: Homo sapiens, NCI-H358, 3 h, read-out: IC50 (pERK(Thr202/Tyr204) normalized with GAPDH).
Assay type: cell-based
Summary of the method: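 After 8–12 h attachment, NCI-H358 cells were treated with compounds for 3 h (0.5% DMSO final), fixed, methanol-permeabilized and immunostained. pERK(Thr202/Tyr204) was read by infrared imaging and normalized to GAPDH as percent of DMSO control. IC50 came from a 4-parameter fit.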

C=CC(=O)N1CCN(c2nc(OC[C@@H]3CCCN3C)nc3c2CCN(c2cc(O)cc4ccccc24)C3)CC1 [Example 127, (S)-1-(4-(7-(3-hydroxynaphthalen-1-yl)-2-((1-methylpyrrolidin-2-yl)methoxy)-5,6,7,8-tetrahydropyrido[3,4-d]pyrimidin-4-yl)piperazin-1-yl)prop-2-en-1-one] was tested. Which IC50 did it give?
The IC50 was 1 to 1000 nM.

Same assay, conditions: Homo sapiens; NCI-H358 cells, 3 hours compound treatment; read-out: IC50 (pERK(Thr202/Tyr204) normalized with GAPDH)

For C/C=C/C(=O)N1CCN(c2nc(OC[C@@H]3CCCN3C)nc3c2CCN(c2cccc4ccccc24)C3)CC1CC#N (stereo partly drawn) [Example 263, 2-[1-[(E)-but-2-enoyl]-4-[2-[[(2S)-1-methylpyrrolidin-2-yl]methoxy]-7-(1-naphthyl)-6,8-dihydro-5H-pyrido[3,4-d]pyrimidin-4-yl]piperazin-2-yl]acetonitrile], which IC50 is on record?
Its IC50 is 1 to 1000 nM.

With C=CC(=O)N1CCN(c2nc(OC[C@@H]3CCN(C)C3)nc3c2CCN(c2cc(O)cc4ccccc24)C3)CC1 [Example 110, (R)-1-(4-(7-(3-hydroxynaphthalen-1-yl)-2-((1-methylpyrrolidin-3-yl)methoxy)-5,6,7,8-tetrahydropyrido[3,4-d]pyrimidin-4-yl)piperazin-1-yl)prop-2-en-1-one] as the molecule, how does the IC50 read?
The IC50 was 1 to 1000 nM.

C=CC(=O)N1CCN(c2nc(OC(C)CN(C)C)nc3c2CCN(c2cc(O)cc4ccccc24)C3)CC1 (stereo not shown) [Example 11, 1-(4-(2-((1-(dimethylamino)propan-2-yl)oxy)-7-(3-hydroxynaphthalen-1-yl)-5,6,7,8-tetrahydropyrido[3,4-d]pyrimidin-4-yl)piperazin-1-yl)prop-2-en-1-one] was tested. Which IC50 did it give?
The IC50 was 1 to 1000 nM.

Which IC50 does the source give for C=CC(=O)N1CCN(c2nc(OCCN3CCCC[C@H]3C)nc3c2CCN(c2cc(O)cc4ccccc24)C3)CC1 [Example 97, (R)-1-(4-(7-(3-hydroxynaphthalen-1-yl)-2-(2-(2-methylpiperidin-1-yl)ethoxy)-5,6,7,8-tetrahydropyrido[3,4-d]pyrimidin-4-yl)piperazin-1-yl)prop-2-en-1-one] here?
The IC50 was 1 to 1000 nM.

With C=CC(=O)N1CCN(c2nc(O[C@H](C)CN(C)C)nc3c2CCN(c2cc(O)cc4ccccc24)C3)[C@@H](C)C1 [Example 115, 1-((S)-4-(2-(((R)-1-(dimethylamino)propan-2-yl)oxy)-7-(3-hydroxynaphthalen-1-yl)-5,6,7,8-tetrahydropyrido[3,4-d]pyrimidin-4-yl)-3-methylpiperazin-1-yl)prop-2-en-1-one] as the molecule, how does the IC50 read?
Its IC50 is 1 to 1000 nM.

How did the IC50 turn out when C=CC(=O)N1CCN(c2nc(OCC3CCN(C)C3)nc3c2CCN(c2cc(O)cc4ccccc24)C3)CC1 (stereo not shown) [Example 89, 1-(4-(7-(3-hydroxynaphthalen-1-yl)-2-((1-methylpyrrolidin-3-yl)methoxy)-5,6,7,8-tetrahydropyrido[3,4-d]pyrimidin-4-yl)piperazin-1-yl)prop-2-en-1-one] was run?
Its IC50 is 1 to 1000 nM.

Which IC50 does the source give for C=CC(=O)N1CCN(c2nc(OCC3CCN(C4CCCCC4)C3)nc3c2CCN(c2cc(O)cc4ccccc24)C3)CC1 (stereo not shown) [Example 132, 1-[4-[2-[(1-cyclohexylpyrrolidin-3-yl)methoxy]-7-(3-hydroxy-1-naphthyl)-6,8-dihydro-5H-pyrido[3,4-d]pyrimidin-4-yl]piperazin-1-yl]prop-2-en-1-one] here?
The IC50 was 1 to 1000 nM.

C=CC(=O)N1CCN(c2nc(OC[C@@H]3C[C@@H](OC)CN3C)nc3c2CCN(c2cccc4ccccc24)C3)CC1CC#N (stereo partly drawn) [Example 268, 2-(1-acryloyl-4-(2-(((2S,4R)-4-methoxy-1-methylpyrrolidin-2-yl)methoxy)-7-(naphthalen-1-yl)-5,6,7,8-tetrahydropyrido[3,4-d]pyrimidin-4-yl)piperazin-2-yl)acetonitrile] was tested. Which IC50 did it give?
Its IC50 is 1 to 1000 nM.

With C=CC(=O)N1CCN(c2nc(OC[C@@H]3CCCN3C)nc3c2CCN(c2cccc(F)c2C(F)(F)F)C3)CC1CC#N (stereo partly drawn) [Example 230, 2-(1-acryloyl-4-(7-(3-fluoro-2-(trifluoromethyl)phenyl)-2-(((S)-1-methylpyrrolidin-2-yl)methoxy)-5,6,7,8-tetrahydropyrido[3,4-d]pyrimidin-4-yl)piperazin-2-yl)acetonitrile] as the molecule, how does the IC50 read?
The IC50 was 1 to 1000 nM.

How did the IC50 turn out when C=CC(=O)N1CCN(c2nc(O[C@H](C)CN3CCCCC3)nc3c2CCN(c2cc(O)cc4ccccc24)C3)CC1 [Example 75, (R)-1-(4-(7-(3-hydroxynaphthalen-1-yl)-2-((1-(piperidin-1-yl)propan-2-yl)oxy)-5,6,7,8-tetrahydropyrido[3,4-d]pyrimidin-4-yl)piperazin-1-yl)prop-2-en-1-one] was run?
The IC50 was 1 to 1000 nM.

Which IC50 does the source give for C=CC(=O)N1CCN(c2nc(OC[C@@H]3CCCN3C)nc3c2CCN(c2ccccc2Cl)C3)CC1CC#N (stereo partly drawn) [Example 229, 2-(1-acryloyl-4-(7-(2-chlorophenyl)-2-(((S)-1-methylpyrrolidin-2-yl)methoxy)-5,6,7,8-tetrahydropyrido[3,4-d]pyrimidin-4-yl)piperazin-2-yl)acetonitrile] here?
The IC50 was 1 to 1000 nM.

C=CC(=O)N1CCN(c2nc(OCCCN3C[C@@H]4C[C@H]3CO4)nc3c2CCN(c2cc(O)cc4ccccc24)C3)CC1 [Example 104, 1-(4-(2-(3-((1S,4S)-2-oxa-5-azabicyclo[2.2.1]heptan-5-yl)propoxy)-7-(3-hydroxynaphthalen-1-yl)-5,6,7,8-tetrahydropyrido[3,4-d]pyrimidin-4-yl)piperazin-1-yl)prop-2-en-1-one] was tested. Which IC50 did it give?
Its IC50 is 1 to 1000 nM.

For CN1CCC[C@H]1COc1nc2c(c(N3CCN(C(=O)/C=C/CN4CCCCC4)[C@@H](CC#N)C3)n1)CCN(c1cccc3ccccc13)C2 [Example 236, 2-((S)-4-(2-(((S)-1-methylpyrrolidin-2-yl)methoxy)-7-(naphthalen-1-yl)-5,6,7,8-tetrahydropyrido[3,4-d]pyrimidin-4-yl)-1-(E-4-(piperidin-1-yl)but-2-enoyl)piperazin-2-yl)acetonitrile], which IC50 is on record?
The IC50 was 1 to 1000 nM.

With C=CC(=O)N1CCN(c2nc(OCCCN3CCCOCC3)nc3c2CCN(c2cc(O)cc4ccccc24)C3)CC1 [Example 101, 1-(4-(2-(3-(1,4-oxazepan-4-yl)propoxy)-7-(3-hydroxynaphthalen-1-yl)-5,6,7,8-tetrahydropyrido[3,4-d]pyrimidin-4-yl)piperazin-1-yl)prop-2-en-1-one] as the molecule, how does the IC50 read?
Its IC50 is 1 to 1000 nM.

For C=CC(=O)N1CCN(c2nc(OC[C@H]3CCCN3C)nc3c2CCN(c2cc(O)cc4ccccc24)C3)[C@@H](C)C1 [Example 203, 1-((S)-4-(7-(3-hydroxynaphthalen-1-yl)-2-(((R)-1-methylpyrrolidin-2-yl)methoxy)-5,6,7,8-tetrahydropyrido[3,4-d]pyrimidin-4-yl)-3-methylpiperazin-1-yl)prop-2-en-1-one], which IC50 is on record?
The IC50 was 1 to 1000 nM.

C=CC(=O)N1CCN(c2nc(OC[C@H]3CCCN3C)nc3c2CCN(c2cc(O)cc4ccccc24)C3)CC1CC#N (stereo partly drawn) [Example 178, 2-[4-[7-(3-hydroxy-1-naphthyl)-2-[[(2R)-1-methylpyrrolidin-2-yl]methoxy]-6,8-dihydro-5H-pyrido[3,4-d]pyrimidin-4-yl]-1-prop-2-enoyl-piperazin-2-yl]acetonitrile] was tested. Which IC50 did it give?
The IC50 was 1 to 1000 nM.

With C=CC(=O)N1CCN(c2nc(OC[C@@H]3C[C@H](OC)CN3C)nc3c2CCN(c2cccc4ccccc24)C3)CC1CC#N (stereo partly drawn) [Example 222, 2-(1-acryloyl-4-(2-(((2S,4S)-4-methoxy-1-methylpyrrolidin-2-yl)methoxy)-7-(naphthalen-1-yl)-5,6,7,8-tetrahydropyrido[3,4-d]pyrimidin-4-yl)piperazin-2-yl)acetonitrile] as the molecule, how does the IC50 read?
Its IC50 is 1 to 1000 nM.

C=CC(=O)N1CCN(c2nc(OC[C@@H]3CCCN3C)nc3c2CCN(c2cnccc2C(F)(F)F)C3)CC1CC#N (stereo partly drawn) [Example 212, 2-(1-acryloyl-4-(2-(((S)-1-methylpyrrolidin-2-yl)methoxy)-7-(4-(trifluoromethyl)pyridin-3-yl)-5,6,7,8-tetrahydropyrido[3,4-d]pyrimidin-4-yl)piperazin-2-yl)acetonitrile] was tested. Which IC50 did it give?
Its IC50 is 1 to 1000 nM.

How did the IC50 turn out when C=CC(=O)N1CCN(c2nc(OCCN3CCC(C)CC3)nc3c2CCN(c2cc(O)cc4ccccc24)C3)CC1 [Example 92, 1-(4-(7-(3-hydroxynaphthalen-1-yl)-2-(2-(4-methylpiperidin-1-yl)ethoxy)-5,6,7,8-tetrahydropyrido[3,4-d]pyrimidin-4-yl)piperazin-1-yl)prop-2-en-1-one] was run?
The IC50 was 1 to 1000 nM.

With C=CC(=O)N1CCN(c2nc(OCC3CCN(C4CC4)C3)nc3c2CCN(c2cc(O)cc4ccccc24)C3)CC1 (stereo not shown) [Example 190, 1-(4-(2-((1-cyclopropylpyrrolidin-3-yl)methoxy)-7-(3-hydroxynaphthalen-1-yl)-5,6,7,8-tetrahydropyrido[3,4-d]pyrimidin-4-yl)piperazin-1-yl)prop-2-en-1-one] as the molecule, how does the IC50 read?
The IC50 was 1 to 1000 nM.

How did the IC50 turn out when C=CC(=O)N1CCN(c2nc(OCCN3CCC(OC)CC3)nc3c2CCN(c2cc(O)cc4ccccc24)C3)CC1 [Example 108, 1-(4-(7-(3-hydroxynaphthalen-1-yl)-2-(2-(4-methoxypiperidin-1-yl)ethoxy)-5,6,7,8-tetrahydropyrido[3,4-d]pyrimidin-4-yl)piperazin-1-yl)prop-2-en-1-one] was run?
The IC50 was 1 to 1000 nM.

Which IC50 does the source give for C=CC(=O)N1CCN(c2nc(OC[C@@H]3CCCN3CC)nc3c2CCN(c2cccc4ccccc24)C3)CC1CC#N (stereo partly drawn) [Example 233, 2-(1-acryloyl-4-(2-(((S)-1-ethylpyrrolidin-2-yl)methoxy)-7-(naphthalen-1-yl)-5,6,7,8-tetrahydropyrido[3,4-d]pyrimidin-4-yl)piperazin-2-yl)acetonitrile] here?
Its IC50 is 1 to 1000 nM.

How did the IC50 turn out when C=CC(=O)N1CCN(c2nc(OCCN3C[C@@H]4CC[C@H]3C4)nc3c2CCN(c2cc(O)cc4ccccc24)C3)CC1 [Example 77, 1-(4-(2-(2-((1S,4R)-2-azabicyclo[2.2.1]heptan-2-yl)ethoxy)-7-(3-hydroxynaphthalen-1-yl)-5,6,7,8-tetrahydropyrido[3,4-d]pyrimidin-4-yl)piperazin-1-yl)prop-2-en-1-one] was run?
Its IC50 is 1 to 1000 nM.

With C=CC(=O)N1CCN(c2nc(O[C@H](C)[C@H]3CCCN3C)nc3c2CCN(c2cc(O)cc4ccccc24)C3)CC1 [Example 129, 1-[4-[7-(3-hydroxy-1-naphthyl)-2-[(1R)-1-[(2R)-1-methylpyrrolidin-2-yl]ethoxy]-6,8-dihydro-5H-pyrido[3,4-d]pyrimidin-4-yl]piperazin-1-yl]prop-2-en-1-one] as the molecule, how does the IC50 read?
Its IC50 is 1 to 1000 nM.
